Assay results as given in patent US7354936B2, “2-phenylpyran-4-one derivatives” (Almirall AG, priority 2000, dated 2008).

What was measured:
[1] = molecular target: T1, COX-2 (Homo sapiens, UniProt P35354); test: COX-2 activity in human whole blood (PGE2, LPS-induced); format: cell-based; details: for IC50: LPS 24 h at 37° C., PGE2 by ELISA; for Ratio COX-1/COX-2: ratio of COX-1/COX-2 IC50 values
T1 construct: incubated in the presence of LPS (10:g/ml) for 24 h at 37° C. in order to induce the COX-2 expression; from tissue; host or cells: human whole blood (heparinized) from healthy volunteers, LPS-stimulated for 24 h
T1 sequence (P35354 18-604): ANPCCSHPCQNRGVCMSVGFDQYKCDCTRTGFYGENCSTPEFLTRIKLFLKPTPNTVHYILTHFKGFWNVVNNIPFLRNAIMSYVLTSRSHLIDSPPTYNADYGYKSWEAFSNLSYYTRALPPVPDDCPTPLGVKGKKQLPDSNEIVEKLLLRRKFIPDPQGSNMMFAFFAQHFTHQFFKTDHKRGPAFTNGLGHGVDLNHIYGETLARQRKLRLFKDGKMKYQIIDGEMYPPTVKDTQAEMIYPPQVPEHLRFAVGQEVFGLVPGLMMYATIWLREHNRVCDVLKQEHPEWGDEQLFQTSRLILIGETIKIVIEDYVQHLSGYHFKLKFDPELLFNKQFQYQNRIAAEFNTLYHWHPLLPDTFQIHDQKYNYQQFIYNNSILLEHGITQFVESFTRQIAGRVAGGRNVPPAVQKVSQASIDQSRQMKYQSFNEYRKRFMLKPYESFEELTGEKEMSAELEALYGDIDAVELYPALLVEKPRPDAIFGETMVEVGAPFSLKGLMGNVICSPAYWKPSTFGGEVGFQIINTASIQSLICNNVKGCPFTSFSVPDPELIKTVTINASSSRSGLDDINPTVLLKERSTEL

[2] = molecular target: T2, COX-1 (Homo sapiens, UniProt P23219); test: COX-1 activity in human whole blood (TXB2, calcium ionophore A23187); format: cell-based; details: for IC50: 1 h at 37° C., TXB2 by ELISA; for inhibition at 100 µM: read-out: COX-1 inhibition at 100 μM, at 100 μM
T2 construct: Fresh blood from healthy volunteers; from tissue; host or cells: human whole blood (heparinized) from healthy volunteers
T2 sequence (P23219 24-599): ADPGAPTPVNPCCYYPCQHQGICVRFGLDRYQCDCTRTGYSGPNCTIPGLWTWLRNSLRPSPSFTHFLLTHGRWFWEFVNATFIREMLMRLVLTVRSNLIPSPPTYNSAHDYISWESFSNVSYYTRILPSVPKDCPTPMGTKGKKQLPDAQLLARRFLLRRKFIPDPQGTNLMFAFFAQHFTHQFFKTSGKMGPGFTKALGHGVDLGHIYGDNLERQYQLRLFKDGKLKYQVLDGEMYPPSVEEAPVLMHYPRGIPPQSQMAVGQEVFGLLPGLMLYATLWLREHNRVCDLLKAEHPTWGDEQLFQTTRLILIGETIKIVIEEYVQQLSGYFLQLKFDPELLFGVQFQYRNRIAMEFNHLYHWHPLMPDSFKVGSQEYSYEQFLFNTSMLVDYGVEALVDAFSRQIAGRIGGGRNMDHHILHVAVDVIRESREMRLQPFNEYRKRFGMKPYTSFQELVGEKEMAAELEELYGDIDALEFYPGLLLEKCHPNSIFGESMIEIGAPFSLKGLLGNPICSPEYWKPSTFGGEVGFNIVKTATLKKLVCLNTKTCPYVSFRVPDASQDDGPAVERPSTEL

SMILES | IC50 [1] | Ratio COX-1/COX-2 [1] | melting point | IC50 [2] | inhibition at 100 µM [2]
Cc1cc(=O)c(Oc2ccc(F)cc2C)c(-c2ccc(S(C)(=O)=O)cc2)o1 [Example 1, 3-(4-Fluoro-2-methylphenoxy)-2-(4-methanesulfonylphenyl)-6-methyl pyran-4-one] | 180 nM | 118 | 146 °C | – | –
Cc1cc(=O)c(Oc2ccc(Cl)cc2C)c(-c2ccc(S(C)(=O)=O)cc2)o1 [Example 2, 3-(4-Chloro-2-methylphenoxy)-2-(4-methanesulfonylphenyl)-6-methyl pyran-4-one] | 130 nM | 296 | – | 38500 nM | –
Cc1ccc(Oc2c(-c3ccc(S(C)(=O)=O)cc3)oc(C)cc2=O)c(Cl)c1 [Example 3, 3-(2-Chloro-4-methylphenoxy)-2-(4-methanesulfonylphenyl)-6-methyl pyran-4-one] | 240 nM | 68 | – | 16300 nM | –
Cc1cc(=O)c(Oc2ccc(Br)cc2F)c(-c2ccc(S(C)(=O)=O)cc2)o1 [Example 6, 3-(4-Bromo-2-fluorophenoxy)-2-(4-methanesulfonylphenyl)-6-methyl pyran-4-one] | – | 268 | – | 40200 nM | –
Cc1cc(=O)c(Oc2ccc(Br)cc2Cl)c(-c2ccc(S(C)(=O)=O)cc2)o1 [Example 7, 3-(4-Bromo-2-chlorophenoxy)-2-(4-methanesulfonylphenyl)-6-methyl pyran-4-one] | 210 nM | – | – | – | –
Cc1cc(=O)c(Oc2ccc(Br)cc2Br)c(-c2ccc(S(C)(=O)=O)cc2)o1 [Example 8, 3-(2,4-Dibromophenoxy)-2-(4-methanesulfonylphenyl)-6-methyl-pyran-4-one] | 1130 nM | 51 | – | 57500 nM | –
Cc1cc(=O)c(Oc2ccccc2C)c(-c2ccc(S(C)(=O)=O)cc2)o1 [Example 10, 2-(4-Methanesulfonylphenyl)-6-methyl-3-(2-methylphenoxy)pyran-4-one] | 86 nM | 231 | 168 °C | 19900 nM | –
Cc1cccc(Oc2c(-c3ccc(S(C)(=O)=O)cc3)oc(C)cc2=O)c1 [Example 11, 2-(4-Methanesulfonylphenyl)-6-methyl-3-(3-methylphenoxy)pyran-4-one] | 300 nM | 47 | 162 °C | 14200 nM | –
Cc1ccc(Oc2c(-c3ccc(S(C)(=O)=O)cc3)oc(C)cc2=O)c(F)c1 [Example 12, 3-(2-Fluoro-4-methylphenoxy)-2-(4-methanesulfonylphenyl)-6-methyl pyran-4-one] | – | – | 171 °C | – | –
CCc1oc(-c2ccc(S(C)(=O)=O)cc2)c(Oc2ccc(F)cc2F)c(=O)c1C [Example 13, 3-(2,4-Difluorophenoxy)-6-ethyl-2-(4-methanesulfonylphenyl)-5-methyl pyran-4-one] | – | – | 200 °C | – | –
Cc1oc(-c2ccc(S(C)(=O)=O)cc2)c(Oc2ccc(F)cc2F)c(=O)c1Cl [Example 14, 3-Chloro-5-(2,4-difluorophenoxy)-6-(4-methanesulfonylphenyl)-2-methyl pyran-4-one] | – | – | 210 °C | – | –
Cc1oc(-c2ccc(S(C)(=O)=O)cc2)c(Oc2ccc(F)cc2)c(=O)c1Cl [Example 15, 3-Chloro-5-(4-fluorophenoxy)-6-(4-methanesulfonylphenyl)-2-methyl pyran-4-one] | – | – | 279 °C | – | –
Cc1oc(-c2ccc(S(C)(=O)=O)cc2)c(Oc2ccc(Cl)cc2)c(=O)c1Cl [Example 16, 3-Chloro-5-(4-chlorophenoxy)-6-(4-methanesulfonylphenyl)-2-methyl pyran-4-one] | 530 nM | 74 | 274 °C | 26000 nM | –
Cc1oc(-c2ccc(S(C)(=O)=O)cc2)c(Oc2ccc(F)cc2F)c(=O)c1Br [Example 17, 3-Bromo-5-(2,4-difluorophenoxy)-6-(4-methanesulfonylphenyl)-2-methyl pyran-4-one] | 780 nM | 27 | – | 20000 nM | –
Cc1oc(-c2ccc(S(C)(=O)=O)cc2)c(Oc2ccc(Cl)cc2)c(=O)c1Br [Example 18, 3-Bromo-5-(4-chlorophenoxy)-6-(4-methanesulfonylphenyl)-2-methyl pyran-4-one] | 820 nM | 93 | 251 °C | 76700 nM | –
Cc1oc(-c2ccc(S(C)(=O)=O)cc2)c(Oc2ccc(F)cc2F)c(=O)c1C [Example 19, 3-(2,4-Difluorophenoxy)-5,6-dimethyl-2-(4-methanesulfonylphenyl)pyran-4-one] | 82 nM | 178 | 192 °C | 14600 nM | –
C=Cc1c(C)oc(-c2ccc(S(C)(=O)=O)cc2)c(Oc2ccc(F)cc2F)c1=O [Example 20, 3-(2,4-Difluorophenoxy)-2-(4-methanesulfonylphenyl)-6-methyl-5-vinyl pyran-4-one] | 1430 nM | 22 | 184 °C | 31200 nM | –
CCc1c(C)oc(-c2ccc(S(C)(=O)=O)cc2)c(Oc2ccc(F)cc2F)c1=O [Example 21, 3-(2,4-Difluorophenoxy)-5-ethyl-2-(4-methanesulfonylphenyl)-6-methyl pyran-4-one] | 580 nM | 62 | 173 °C | 35600 nM | –
CS(=O)(=O)c1ccc(-c2oc(CO)cc(=O)c2Oc2ccc(F)cc2F)cc1 [Example 22, 3-(2,4-Difluorophenoxy)-6-hydroxymethyl-2-(4-methanesulfonylphenyl) pyran-4-one] | 190 nM | 279 | 205 °C | 53000 nM | –

Second part, the molecule after the results:

IC50 [1] | Ratio COX-1/COX-2 [1] | melting point | IC50 [2] | inhibition at 100 µM [2] | SMILES
1440 nM | >70 | 206 °C | – | 2% | CS(=O)(=O)c1ccc(-c2oc(CO)cc(=O)c2Oc2ccc(F)cc2)cc1 [Example 23, 3-(4-Fluorophenoxy)-6-hydroxymethyl-2-(4-methanesulfonylphenyl)pyran-4-one]
600 nM | >150 | 227 °C | – | 13% | CS(=O)(=O)c1ccc(-c2oc(CO)cc(=O)c2Oc2ccc(Cl)cc2)cc1 [Example 24, 3-(4-Chlorophenoxy)-6-hydroxymethyl-2-(4-methanesulfonylphenyl)pyran-4-one]
– | – | 202 to 203 °C | – | – | CS(=O)(=O)c1ccc(-c2oc(CO)cc(=O)c2Oc2ccc(Br)cc2F)cc1 [Example 25, 3-(2-Fluoro-4-bromophenoxy)-6-hydroxymethyl-2-(4-methanesulfonylphenyl)pyran-4-one]
170 nM | 124 | 124 °C | 21100 nM | – | COCc1cc(=O)c(Oc2ccc(F)cc2F)c(-c2ccc(S(C)(=O)=O)cc2)o1 [Example 26, 3-(2,4-Difluorophenoxy)-2-(4-methanesulfonylphenyl)-6-methoxymethyl pyran-4-one]
320 nM | 270 | – | 86300 nM | – | COCc1cc(=O)c(Oc2ccc(F)cc2)c(-c2ccc(S(C)(=O)=O)cc2)o1 [Example 27, 3-(4-Fluorophenoxy)-2-(4-methanesulfonylphenyl)-6-methoxymethylpyran-4-one]
440 nM | 209 | 156 °C | 91900 nM | – | COCc1cc(=O)c(Oc2ccc(Cl)cc2)c(-c2ccc(S(C)(=O)=O)cc2)o1 [Example 28, 3-(4-Chlorophenoxy)-2-(4-methanesulfonylphenyl)-6-methoxymethylpyran-4-one]
– | – | 175 °C | – | – | CC(=O)OCc1cc(=O)c(Oc2ccc(F)cc2F)c(-c2ccc(S(C)(=O)=O)cc2)o1 [Example 29, Acetic acid [5-(2,4-difluorophenoxy)-6-(4-methanesulfonylphenyl)-4-oxo-4H-pyran-2-yl]methyl ester]
– | – | 263 °C | – | – | CS(=O)(=O)c1ccc(-c2oc(C(=O)O)cc(=O)c2Oc2ccc(Cl)cc2)cc1 [Example 33, 5-(4-Chlorophenoxy)-6-(4-methanesulfonylphenyl)-4-oxo-4H-pyran-2-carboxylic acid]
– | – | 156 °C | – | – | CS(=O)(=O)c1ccc(-c2oc(C(F)F)cc(=O)c2Oc2ccc(F)cc2F)cc1 [Example 34, 6-(1,1-Difluoromethyl)-3-(2,4-difluorophenoxy)-2-(4-methanesulfonylphenyl)pyran-4-one]
– | – | 187.8 to 188.6 °C | – | – | Cc1c(C(F)F)oc(-c2ccc(S(C)(=O)=O)cc2)c(Oc2ccc(F)cc2F)c1=O [Example 38, 2-(1,1-Difluoromethyl)-5-(2,4-difluorophenoxy)-6-(4-methanesulfonylphenyl)-3-methylpyran-4-one]
